#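 These data come from cells grown in 96-well plates and exposed to compound for 48 hours at five concentrations. Abbreviation: GI50, concentration required for 50% inhibition of growth. TGI: total growth inhibition.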
# Assays:
# Assay in all cases: NCI anticancer screen, dose series, 48 h
# [1] = system: RXF 393 renal
# [2] = system: A498 renal
# [3] = system: COLO 205 colon
# [4] = system: U251 CNS
# [5] = system: SF-295 CNS
# [6] = system: OVCAR-5 ovarian
# [7] = system: IGROV1 ovarian
# [8] = system: HCT-116 colon
# [9] = system: UO-31 renal
# [10] = system: CAKI-1 renal
# [11] = system: HT29 colon
# [12] = system: TK-10 renal
# [13] = system: OVCAR-8 ovarian
# [14] = system: A549 NSCLC
# [15] = system: DU-145 prostate
# [16] = system: OVCAR-3 ovarian
# [17] = system: HS 578T breast
# [18] = system: HL-60(TB) leukemia
# [19] = system: NCI-H460 lung
# [20] = system: SF-539 CNS
# [21] = system: NCI-H23 lung
# [22] = system: NCI-H522 lung
# [23] = system: EKVX NSCLC
# [24] = system: MCF7 breast
# [25] = system: T-47D breast
# [26] = system: NCI-H226 lung
# [27] = system: SNB-75 CNS
# [28] = system: UACC-62 melanoma
# [29] = system: SK-MEL-5 melanoma
# [30] = system: OVCAR-4 ovarian
# [31] = system: SK-MEL-2 melanoma
# [32] = system: KM12 colon
# [33] = system: M14 melanoma
# [34] = system: PC-3 prostate
# [35] = system: 786-0 renal
# [36] = system: MDA-MB-231 breast
# [37] = system: NCI/ADR-RES ovarian
# [38] = system: SW-620 colon
# [39] = system: HCT-15 colon
# [40] = system: MDA-MB-435
# [41] = system: SK-OV-3 ovarian
# [42] = system: SK-MEL-28 melanoma
# [43] = system: BT-549 breast
# [44] = system: HCC-2998 colon
# [45] = system: LOX IMVI melanoma
# [46] = system: SF-268 CNS
# [47] = system: MOLT-4 leukemia
# [48] = system: ACHN renal
# [49] = system: SNB-19 CNS
# [50] = system: UACC-257 melanoma
# [51] = system: HOP-92 NSCLC
# [52] = system: MALME-3M melanoma
# [53] = system: K-562 leukemia
# [54] = system: HOP-62 NSCLC
# [55] = system: SN12C renal
# [56] = system: RPMI-8226 leukemia
# [57] = system: CCRF-CEM leukemia
# [58] = system: SR leukemia
structure (smiles),measurement,setting,value
O=C(O)C1CC[N-]CC1.O=C(O)C1CC[N-]CC1.[Cl][Pt+2]([Cl])([Cl])[Cl],GI50,[1],34.2 µM
OC(c1cc(-c2ccc(C(F)(F)F)cc2)nc(-c2ccc(C(F)(F)F)cc2)c1)C1CCCCN1 (stereo not drawn),GI50,[2],1560 nM
same,TGI,[2],2.96 µM
same,GI50,[3],0.893 µM
same,TGI,[3],2.1 µM
same,GI50,[4],1710 nM
same,TGI,[4],3.32 µM
same,GI50,[5],1750 nM
same,TGI,[5],3.33 µM
same,GI50,[6],1580 nM
same,TGI,[6],3.06 µM
same,GI50,[7],1830 nM
same,TGI,[7],3.67 µM
same,GI50,[8],1.66 µM
same,TGI,[8],3.18 µM
same,GI50,[9],1.56 µM
same,TGI,[9],3.3 µM
same,GI50,[10],1890 nM
same,TGI,[10],3.79 µM
same,GI50,[11],1.62 µM
same,TGI,[11],3.09 µM
same,GI50,[12],1.82 µM
same,TGI,[12],3.28 µM
same,GI50,[13],1.47 µM
same,TGI,[13],3.1 µM
same,GI50,[14],1.72 µM
same,TGI,[14],3.28 µM
same,GI50,[15],1.78 µM
same,TGI,[15],3.16 µM
same,GI50,[16],1.78 µM
same,TGI,[16],3.25 µM
same,GI50,[17],1.47 µM
same,TGI,[17],3.2 µM
same,GI50,[18],2050 nM
same,TGI,[18],3.88 µM
same,GI50,[19],1620 nM
same,TGI,[19],3.08 µM
COc1cc2c3c(n(C)c(=O)c2cc1OC)-c1cc2c(cc1/C3=C\CCCN)OCO2,GI50,[20],1.65 µM
same,TGI,[20],6.25 µM
same,GI50,[21],8.07 µM
same,TGI,[21],> 100 µM
same,GI50,[22],0.61 µM
same,TGI,[22],23.4 µM
same,GI50,[2],2490 nM
same,TGI,[2],18.2 µM
same,GI50,[23],17.7 µM
same,TGI,[23],> 100 µM
same,GI50,[3],7.67 µM
same,TGI,[3],> 100 µM
same,GI50,[24],3.95 µM
same,TGI,[24],42.8 µM
same,GI50,[25],10.9 µM
same,TGI,[25],> 100 µM
same,GI50,[26],9.33 µM
same,TGI,[26],31.6 µM
same,GI50,[27],11.2 µM
same,TGI,[27],31.6 µM
same,GI50,[4],1660 nM
same,TGI,[4],10.6 µM
same,GI50,[5],1830 nM
same,TGI,[5],8.15 µM
same,GI50,[6],3750 nM
same,TGI,[6],26.2 µM
same,GI50,[28],2.13 µM
same,TGI,[28],13.7 µM
same,GI50,[7],2240 nM
same,TGI,[7],32.4 µM
same,GI50,[29],2.99 µM
same,TGI,[29],13.8 µM
same,GI50,[1],5.84 µM
same,TGI,[1],32 µM
same,GI50,[30],17.9 µM
same,TGI,[30],52.7 µM
same,GI50,[31],16.6 µM
same,TGI,[31],45 µM
same,GI50,[32],11 µM
same,TGI,[32],84.8 µM
same,GI50,[33],12.4 µM
same,TGI,[33],> 100 µM
same,GI50,[34],3.31 µM
same,TGI,[34],31.9 µM
same,GI50,[8],4.64 µM
same,TGI,[8],25.2 µM
same,GI50,[35],1.23 µM
same,TGI,[35],5.02 µM
same,GI50,[9],3.18 µM
same,TGI,[9],20.3 µM
same,GI50,[36],5.09 µM
same,TGI,[36],31.5 µM
same,GI50,[10],1990 nM
same,TGI,[10],8.62 µM
same,GI50,[37],14.5 µM
same,TGI,[37],74.4 µM
same,GI50,[38],2.33 µM
same,TGI,[38],32.9 µM
same,GI50,[11],4.57 µM
same,TGI,[11],> 100 µM
same,GI50,[39],3.18 µM
same,TGI,[39],15.5 µM
same,GI50,[12],21.9 µM
same,TGI,[12],> 100 µM
same,GI50,[40],8.6 µM
same,TGI,[40],41.6 µM
same,GI50,[41],41 µM
same,TGI,[41],> 100 µM
same,GI50,[42],18.8 µM
same,TGI,[42],> 100 µM
same,GI50,[43],15.5 µM
same,TGI,[43],38.9 µM
same,GI50,[13],10.1 µM
same,TGI,[13],22.4 µM
same,GI50,[44],10.4 µM
same,TGI,[44],32.3 µM
same,GI50,[14],4.3 µM
same,TGI,[14],> 100 µM
same,GI50,[45],1.06 µM
same,TGI,[45],2.52 µM
same,GI50,[15],5.57 µM
same,TGI,[15],54.1 µM
same,GI50,[46],4.93 µM
same,TGI,[46],66.9 µM
same,GI50,[47],325 nM
same,TGI,[47],3.64 µM
same,GI50,[16],13.8 µM
same,TGI,[16],29.8 µM
same,GI50,[48],2.09 µM
same,TGI,[48],8.64 µM
same,GI50,[49],18.7 µM
same,TGI,[49],> 100 µM
same,GI50,[50],30.5 µM
same,TGI,[50],> 100 µM
same,GI50,[51],696 nM
same,TGI,[51],7.22 µM
same,GI50,[17],24.7 µM
same,TGI,[17],87.6 µM
same,GI50,[52],10.1 µM
same,TGI,[52],38.6 µM
same,GI50,[53],1310 nM
same,TGI,[53],12 µM
same,GI50,[54],3.64 µM
same,TGI,[54],26.6 µM
same,GI50,[19],2650 nM
same,TGI,[19],> 100 µM
Cc1cccc(NC(=O)Cn2cnc3sc(C(=O)OC(C)C)c(C)c3c2=O)c1,GI50,[20],8.77 µM
same,TGI,[20],21.5 µM
same,GI50,[22],12.3 µM
same,TGI,[22],44.6 µM
same,GI50,[2],16100 nM
same,TGI,[2],> 50 µM
same,GI50,[23],7.51 µM
same,TGI,[23],22.4 µM
same,GI50,[3],> 50 µM
same,TGI,[3],> 50 µM
same,GI50,[24],38.2 µM
same,TGI,[24],> 50 µM
same,GI50,[25],> 50 µM
same,TGI,[25],> 50 µM
same,GI50,[27],17.5 µM
same,TGI,[27],39.5 µM
same,GI50,[4],12600 nM
same,TGI,[4],31 µM
same,GI50,[5],> 50000 nM
same,TGI,[5],> 50 µM
same,GI50,[28],8.78 µM
same,TGI,[28],24.3 µM
same,GI50,[7],16300 nM
same,TGI,[7],> 50 µM
same,GI50,[29],20.7 µM
same,TGI,[29],> 50 µM
same,GI50,[1],7.1 µM
same,TGI,[1],22.7 µM
same,GI50,[55],7.66 µM
same,TGI,[55],22.3 µM
same,GI50,[31],16 µM
same,TGI,[31],> 50 µM
same,GI50,[32],30.3 µM
same,TGI,[32],> 50 µM
same,GI50,[33],> 50 µM
same,TGI,[33],> 50 µM
same,GI50,[56],> 50 µM
same,TGI,[56],> 50 µM
same,GI50,[34],> 50 µM
same,TGI,[34],> 50 µM
same,GI50,[8],15.6 µM
same,TGI,[8],> 50 µM
same,GI50,[35],32.9 µM
same,TGI,[35],> 50 µM
same,GI50,[9],> 50 µM
same,TGI,[9],> 50 µM
same,GI50,[36],11.2 µM
same,TGI,[36],39.5 µM
same,GI50,[10],45900 nM
same,TGI,[10],> 50 µM
same,GI50,[57],> 50 µM
same,TGI,[57],> 50 µM
same,GI50,[38],33.5 µM
same,TGI,[38],> 50 µM
same,GI50,[39],32.6 µM
same,TGI,[39],> 50 µM
same,GI50,[12],16.7 µM
same,TGI,[12],> 50 µM
same,GI50,[40],> 50 µM
same,TGI,[40],> 50 µM
same,GI50,[41],26.8 µM
same,TGI,[41],> 50 µM
same,GI50,[42],16.6 µM
same,TGI,[42],> 50 µM
same,GI50,[43],8.21 µM
same,TGI,[43],25.2 µM
same,GI50,[13],17.4 µM
same,TGI,[13],> 50 µM
same,GI50,[14],16.4 µM
same,TGI,[14],> 50 µM
same,GI50,[45],11.2 µM
same,TGI,[45],35.9 µM
same,GI50,[15],9.33 µM
same,TGI,[15],36.6 µM
same,GI50,[58],> 50 µM
same,TGI,[58],> 50 µM
same,GI50,[46],18.8 µM
same,TGI,[46],> 50 µM
same,GI50,[47],> 50000 nM
same,TGI,[47],> 50 µM
same,GI50,[16],33.4 µM
same,TGI,[16],> 50 µM
same,GI50,[48],9.73 µM
same,TGI,[48],26.6 µM
same,GI50,[49],14.1 µM
same,TGI,[49],38.6 µM
same,GI50,[50],19 µM
same,TGI,[50],> 50 µM
same,GI50,[51],> 50000 nM
same,TGI,[51],> 50 µM
same,GI50,[17],16.5 µM
same,TGI,[17],> 50 µM
same,GI50,[18],> 50000 nM
same,TGI,[18],> 50 µM
same,GI50,[53],> 50000 nM
same,TGI,[53],> 50 µM
same,GI50,[54],13.7 µM
same,TGI,[54],35.9 µM
same,GI50,[19],25200 nM
same,TGI,[19],> 50 µM
